Bounds are passed on as bounds.

The first assay concerns the target T1, NOX (Homo sapiens, UniProt P04839).
T1 construct: HL60 differentiation to the neutrophil phenotype was triggered by adding Me2SO; endogenous in cells; host or cells: HL-60 cells differentiated with Me2SO (1.25% v/v, 6 days) to the neutrophil phenotype
T1 sequence (P04839 2-570 limits assumed): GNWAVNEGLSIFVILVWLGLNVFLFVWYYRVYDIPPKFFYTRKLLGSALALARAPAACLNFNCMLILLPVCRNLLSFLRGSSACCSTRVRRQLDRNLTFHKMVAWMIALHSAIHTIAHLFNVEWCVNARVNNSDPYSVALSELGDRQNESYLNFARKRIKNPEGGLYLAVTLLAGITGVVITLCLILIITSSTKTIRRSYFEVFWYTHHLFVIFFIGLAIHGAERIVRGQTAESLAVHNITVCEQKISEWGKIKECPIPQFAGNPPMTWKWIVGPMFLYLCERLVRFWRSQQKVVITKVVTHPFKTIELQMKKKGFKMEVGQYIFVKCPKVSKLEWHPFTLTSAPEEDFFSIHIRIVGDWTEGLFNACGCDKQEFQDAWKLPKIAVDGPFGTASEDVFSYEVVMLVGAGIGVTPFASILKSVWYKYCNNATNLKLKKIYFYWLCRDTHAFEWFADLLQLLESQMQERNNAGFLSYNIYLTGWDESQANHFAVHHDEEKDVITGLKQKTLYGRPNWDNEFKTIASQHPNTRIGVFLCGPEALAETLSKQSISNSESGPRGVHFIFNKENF
T1 sequence (P13498 1-195 partner): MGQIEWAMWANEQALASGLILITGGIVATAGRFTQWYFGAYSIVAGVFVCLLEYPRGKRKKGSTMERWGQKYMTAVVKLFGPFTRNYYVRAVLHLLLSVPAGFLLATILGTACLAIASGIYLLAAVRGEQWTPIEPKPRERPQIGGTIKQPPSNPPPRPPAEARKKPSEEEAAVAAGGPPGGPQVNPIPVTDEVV
Put plainly: Amplex Red measurement of extracellular hydrogen peroxide (NOX activity) in DMSO-differentiated HL60 cells. In kind it is cell-based.
Conditions: not given
Here is the method: Human acute myeloid leukemia cell line HL-60 was cultured in RPMI 1640 (Invitrogen) supplemented with 10% heat-inactivated calf serum, 2 mM glutamine, 100 U/mL penicillin (Sigma), and 100 μg streptomycin (Sigma) at 37° C. under a humidified atmosphere of 5% CO2. HL60 differentiation to the neutrophil phenotype was triggered by adding Me2SO (final concentration 1.25% v/v for 6 days) to the culture medium.
Extracellular hydrogen peroxide was measured using Amplex UltraRed (Molecular Probes). Cells were trypsinized (1× Trypsin-EDTA), collected by centrifugation, and resuspended in HBSS supplemented with 1% glucose. Cells were seeded into black 96-well plates at a density of 50′000 cells in 200 μl testing buffer (HBSS 1% glucose containing 0.005 U/mL horseradish peroxidase (Roche) and 50 μM Amplex Red in the presence or absence of compounds according to the invention. As a control, DPI was included at a final concentration of 10 μM The plates were placed in the fluorescent Optima Fluorescent plate reader and kept at 37° C. during 20 min. Fluorescence was measured for […] with excitation and emission wavelengths of 544 nm and 590 nm respectively. NOX activities were expressed as % of the activity in control cells. Residual activity of DPI-treated cells was usually <10%. […]
The Table 3 below summarizes the IC50 of NOX activity as measured by Amplex Red using DMSO-differentiated HL60 cells as described above: […]
A word on the IC50: it is the point on the concentration scale where inhibition reaches its midpoint. In turn, `COc1cccc(-n2[nH]c3c(c2=O)CN(Cc2ccccc2)CC3)c1` [Compound 24, 5-benzyl-2-(3-methoxyphenyl)-1,2,4,5,6,7-hexahydro-3H-pyrazolo[4,3-c]pyridin-3-one] came in with an IC50 of under 5 µM.

Regarding `CN1CCC(n2[nH]c3c(c2=O)CN(Cc2ccc(Cl)nc2)CC3)CC1` [Compound 96, 5-[(6-chloropyridin-3-yl)methyl]-2-(1-methylpiperidin-4-yl)-1,2,4,5,6,7-hexahydro-3H-pyrazolo[4,3-c]pyridin-3-one], the IC50 was under 5 µM.

As to `Cn1[nH]c2c(c1=O)CN(Cc1ccccc1)CC2` [Compound 8, 5-benzyl-2-methyl-1,2,4,5,6,7-hexahydro-3H-pyrazolo[4,3-c]pyridin-3-one], the concentration for half-maximal inhibition (IC50) was under 5 µM.

`CN1N=C2CCN(Cc3ccc(Cl)cc3)CC2(Cc2cccnc2)C1=O` (stereo not shown) [Compound 87, 5-(4-chlorobenzyl)-2-methyl-3a-(pyridin-3-ylmethyl)-2,3a,4,5,6,7-hexahydro-3H-pyrazolo[4,3-c]pyridin-3-one]: the IC50 is under 5 µM.

`CS(=O)(=O)N1CCc2[nH]n(Cc3ccccc3)c(=O)c2C1` [Compound 102, 2-benzyl-5-(methylsulfonyl)-1,2,4,5,6,7-hexahydro-3H-pyrazolo[4,3-c]pyridin-3-one] yielded a concentration for half-maximal inhibition (IC50) of under 5 µM.

Compound `O=c1c2c([nH]n1-c1ccc(F)cc1Cl)CCNC2` [Compound 4, 2-(2-chloro-4-fluorophenyl)-1,2,4,5,6,7-hexahydro-3H-pyrazolo[4,3-c]pyridin-3-one] displayed a 50% inhibitory concentration (IC50) of under 5 µM.

For `O=c1c2c([nH]n1Cc1ccccc1)CCN(Cc1ccccc1)C2` [Compound 12, 2,5-dibenzyl-1,2,4,5,6,7-hexahydro-3H-pyrazolo[4,3-c]pyridin-3-one], the half-maximal inhibitory concentration (IC50) was under 5 µM.

In the case of `O=c1c2c([nH]n1Cc1ccccc1)CCN(Cc1ccc(Cl)cc1)C2` [Compound 9, 2-benzyl-5-(4-chlorobenzyl)-1,2,4,5,6,7-hexahydro-3H-pyrazolo[4,3-c]pyridin-3-one], the IC50 was under 5 µM.

With `O=c1c2c([nH]n1Cc1ccccc1)CCN(Cc1ccc(Cl)nc1)C2` [Compound 97, 2-benzyl-5-[(6-chloropyridin-3-yl)methyl]-1,2,4,5,6,7-hexahydro-3H-pyrazolo[4,3-c]pyridin-3-one], the IC50 is under 5 µM.

The compound `O=c1c2c([nH]n1-c1cccc(OCc3ccccc3)c1)CCN(Cc1ccccc1)C2` [Compound 3, 5-benzyl-2-[3-(benzyloxy)phenyl]-1,2,4,5,6,7-hexahydro-3H-pyrazolo[4,3-c]pyridin-3-one] had an IC50 of under 5 µM.

For the compound `O=c1c2c([nH]n1Cc1ccc(Cl)cc1)CCN(Cc1ccccc1)C2` [Compound 1, 5-benzyl-2-(4-chlorobenzyl)-1,2,4,5,6,7-hexahydro-3H-pyrazolo[4,3-c]pyridin-3-one], the IC50 was under 5 µM.

Consider `O=c1c2c([nH]n1-c1ccc(F)cc1Cl)CCN(Cc1ccccc1)C2` [Compound 2, 5-benzyl-2-(2-chloro-4-fluorophenyl)-1,2,4,5,6,7-hexahydro-3H-pyrazolo[4,3-c]pyridin-3-one], for which the IC50 was under 5 µM.

In turn, `Cc1ccc(S(=O)(=O)N2CCc3[nH]n(Cc4cn5ccccc5n4)c(=O)c3C2)cc1` [Compound 103, 2-(imidazo[1,2-a]pyridin-2-ylmethyl)-5-[(4-methylphenyl)sulfonyl]-1,2,4,5,6,7-hexahydro-3H-pyrazolo[4,3-c]pyridin-3-one] returned a half-inhibitory concentration (IC50) of under 5 µM.

A further assay deals with NOX. The assay is described as follows: Nitroblue tetrazolium (NBT) superoxide test in cells. Conditions: DPI 10 μM, usually. In kind it is cell-based, human. Here is the method: Human microglia cell line (HMC3, human microglia clone 3) (Janabi et al., 1995, Neurosci. Lett. 195:105) were cultured in MEM (Eagle's minimum essential medium) containing 10% FBS with 50 U/ml penicillin G sodium 50 μg/ml streptomycin sulfate, and incubated at 37° C. for 24 hours. IFN-γ (human IFN-γ, Roche. 11 040 596 001) was added to the culture medium for a final concentration of 10 ng/ml 24 h, before detection of O2^− formation. […]
Intracellular and extracellular superoxide was measured by a colorimetric technique using a quantitative nitroblue tetrazolium (NBT) test. SOD-inhibitable conversion of NBT to formazan, a fine blue precipitate, in the presence of superoxide anion was measured using Fluostar Optima spectrometer (BMG labtech). […] The absorption was measured at 630 nm. For calculation, the absorbance at 630 nm was normalized for each individual well. […] NOX activities were expressed as % of the activity in control cells. […]
On to `c1ccc([I+]c2ccccc2)cc1` [DPI, Diphenyl-iodonium], for which the “Residual activity of DPI-treated cells (NOX activity as % of control cells)” value is on record as under 10%.

A further assay relates to NOX. Put plainly: Chemiluminescence (luminol) ROS measurement in cells. The class given is cell-based, human. Conditions: usually. The procedure: ROS was measured using the chemiluminescent probe luminol. Cells were cultured and plated as for Amplex Red except that the Amplex Red agent was replaced by 10 μg/mL luminol (Sigma 09235). Light emission was recorded continuously at 37° C. for 60 minutes using the luminescence function of the FluoStar Optima fluorescent plate reader. The mean of the four blank values was subtracted from each corrected value for each time point. NOX activities were expressed as % of the activity in control cells. Residual activity of DPI-treated cells was usually <10%.
Turning to `c1ccc([I+]c2ccccc2)cc1` [DPI, Diphenyl-iodonium], the “Residual activity of DPI-treated cells (NOX activity as % of control cells)” value is given as under 10%.

The subject of another assay is NOX. The assay is described as follows: H2DCF-DA fluorescence in TGF-β stimulated HUVEC. In kind it is cell-based, human. Conditions: usually. The procedure: HUVEC are cultured in endothelial basal medium supplemented with hydrocortisone (1 μg/mL, Calbiochem), bovine brain extract (12 μg/mL), gentamicin (50 μg/mL, Calbiochem), amphotericin B (50 ng/mL, Calbiochem EGF (10 ng/mL, and 10% FCS until the fourth passage. When the fifth passage was started, cells were cultured with a lower concentration of FCS (2%) in the absence of EGF, if not indicated otherwise. All experiments were done with cells of the fifth passage. The cells were incubated with OxLDL (oxidized low-density lipoprotein) or its buffer as control for 24 h, before detection of O2^− formation.
HUVEC were plated on coverslips and made quiescent overnight in 0.5% BSA before stimulation with TGF-β. Cells were loaded for 10 minutes with 5 μM CM-H2DCF-DA in phenol-red-free medium in the dark and then treated with TGF-β (R&D Systems) in the presence or absence of compounds according to the invention. Cells were then visualized by immunofluorescence microscopy after fixation and staining of the nuclei with DAPI or examined live using confocal microscopy. DCF fluorescence was visualized at an excitation wavelength of 488 nm and emission at 515 to 540 nm. […] For calculation, the absorbance at […] was normalized to absorbance at […] for each individual well. […] NOX activities were expressed as % of the activity in control cells. […]
For the compound `c1ccc([I+]c2ccccc2)cc1` [DPI, Diphenyl-iodonium], the “Residual activity of DPI-treated cells (NOX activity as % of control cells)” value is listed as under 10%.

For the origin of these results see US8865758B2, “Pyrazolo piperidine derivatives as NADPH oxidase inhibitors” (Genkyotex SA, priority 2010, dated 2014).
